Experimental data from patent publication US9108983B2, “Pyrrole compounds, a process for their preparation and pharmaceutical compositions containing them” (LES LABORATOIRES SERVIER, priority 2013, dated 2015).
Where a name gives a salt, the structure may show the parent alone.

system: RS4;11 leukaemia tumour line; experiment: In vitro cytotoxicity (Microculture Tetrazolium Assay); type: cell-based; conditions: Homo sapiens, RS4-11, 48 h, RS4;11 cells, exposed for 48 hours, cell viability; read-out: IC50 (nM) MTT RS4;11
Description: The cytotoxicity studies were carried out on the RS4;11 leukaemia tumour line.
The cells are distributed onto microplates and exposed to the test compounds for 48 hours.
The cell viability is then quantified by a colorimetric assay, the Microculture Tetrazolium Assay (Cancer Res., 1987, 47, 939-942).

Row | Compound | IC50 [nM]
1 | Cc1c(C(=O)N(c2ccc(O)cc2)c2cnn(C)c2)cc(-c2cc(F)ccc2C(=O)N2Cc3ccccc3C[C@H]2CN2CCOCC2)n1C [Example 67, 5-(5-Fluoro-2-{[(3S)-3-(morpholin-4-ylmethyl)-3,4-dihydroisoquinolin-2(1H)-yl]carbonyl}phenyl)-N-(4-hydroxyphenyl)-1,2-dimethyl-N-(1-methyl-1H-pyrazol-4-yl)-1H-pyrrole-3-carboxamide hydrochloride] | 98.6
2 | C[C@@H]1Cc2ccccc2CN1C(=O)c1cc2c(cc1-c1cc(C(=O)N(c3ccc(O)cc3)c3cnn(C)c3)c(CCN3CCOCC3)n1C)OCO2 [Example 81, N-(4-Hydroxyphenyl)-1-methyl-5-(6-{[(3R)-3-methyl-3,4-dihydroisoquinolin-2(1H)-yl]carbonyl}-1,3-benzodioxol-5-yl)-N-(1-methyl-1H-pyrazol-4-yl)-2-[2-(morpholin-4-yl)ethyl]-1H-pyrrole-3-carboxamide hydrochloride] | 249
3 | COc1ccc(N(C(=O)c2cc(-c3cc(Cl)ccc3C(=O)N3Cc4ccccc4C[C@H]3CN3CCOCC3)n(C)c2C)c2ccc(O)cc2)nc1C#N [Example 457, 5-(5-Chloro-2-{[(3S)-3-(morpholin-4-ylmethyl)-3,4-dihydroisoquinolin-2(1H)-yl]carbonyl}phenyl)-N-(6-cyano-5-methoxypyridin-2-yl)-N-(4-hydroxyphenyl)-1,2-dimethyl-1H-pyrrole-3-carboxamide hydrochloride] | 80.4
4 | Cc1c(C(=O)N(c2ccccc2)c2ccc(O)cc2)cc(-c2cc(Cl)ccc2C(=O)N2Cc3ccccc3C[C@H]2COCCN(C)C)n1C [Example 60, 5-(5-Chloro-2-{[(3S)-3-{[2-(dimethylamino)ethoxy]methyl}-3,4-dihydroisoquinolin-2(1H)-yl]carbonyl}phenyl)-N-(4-hydroxyphenyl)-1,2-dimethyl-N-phenyl-1H-pyrrole-3-carboxamide hydrochloride] | 18.3
5 | Cl.[2H]C([2H])([2H])n1cc(N(C(=O)c2cc(-c3cc(F)ccc3C(=O)N3Cc4ccccc4C[C@H]3CN3CCOCC3)n(C)c2C)c2ccc(O)cc2)cn1 [Example 420, 5-(5-Fluoro-2-{[(3S)-3-(morpholin-4-ylmethyl)-3,4-dihydroisoquinolin-2(1H)-yl]carbonyl}phenyl)-N-(4-hydroxyphenyl)-1,2-dimethyl-N-[1-(trideuteriomethyl)-1H-pyrazol-4-yl]-1H-pyrrole-3-carboxamide hydrochloride] | 51.8
6 | CCOc1ncc(N(C(=O)c2cc(-c3cc(F)ccc3C(=O)N3Cc4ccccc4C[C@H]3CN3CCOCC3)n(C)c2C)c2ccc(O)cc2)cn1 [Example 463, N-(2-Ethoxypyrimidin-5-yl)-5-(5-fluoro-2-{[(3S)-3-(morpholin-4-ylmethyl)-3,4-dihydroisoquinolin-2(1H)-yl]carbonyl}phenyl)-N-(4-hydroxyphenyl)-1,2-dimethyl-1H-pyrrole-3-carboxamide] | 40.8
7 | Cn1cc(C(=O)N(c2ccccc2)c2ccccc2)cc1-c1ccccc1C(=O)N1Cc2ccccc2C[C@H]1CN [Example 2, 5-(2-{[(3S)-3-(Aminomethyl)-3,4-dihydroisoquinolin-2(1H)-yl]carbonyl}phenyl)-1-methyl-N,N-diphenyl-1H-pyrrole-3-carboxamide] | 1660
8 | Cc1c(C(=O)N(c2ccccc2)c2cnc3c(ccn3C)c2)cc(-c2cc(F)c(O)cc2C(=O)N2Cc3ccccc3C[C@H]2CN2CCOCC2)n1C [Example 443, 5-(5-Fluoro-4-hydroxy-2-{[(3S)-3-(morpholin-4-ylmethyl)-3,4-dihydroisoquinolin-2(1H)-yl]carbonyl}phenyl)-1,2-dimethyl-N-(1-methyl-1H-pyrrolo[2,3-b]pyridin-5-yl)-N-phenyl-1H-pyrrole-3-carboxamide] | 57.9
9 | Cc1c(C(=O)N(c2ccc(O)cc2)c2cnn(C)c2)cc(-c2ccc(Cl)cc2C(=O)N2Cc3ccccc3C[C@H]2CN2CCOCC2)n1C [Example 466, 5-(4-Chloro-2-{[(3S)-3-(morpholin-4-ylmethyl)-3,4-dihydroisoquinolin-2(1H)-yl]carbonyl}phenyl)-N-(4-hydroxyphenyl)-1,2-dimethyl-N-(1-methyl-1H-pyrazol-4-yl)-1H-pyrrole-3-carboxamide hydrochloride] | 493
10 | Cc1c(N(C(=O)c2cc(-c3ccc(Cl)cc3C(=O)N3Cc4ccccc4C[C@H]3CN3CCOCC3)n(C)c2C)c2ccc(O)cc2)cc(C#N)n1C [Example 465, 5-(4-Chloro-2-{[(3S)-3-(morpholin-4-ylmethyl)-3,4-dihydroisoquinolin-2(1H)-yl]carbonyl}phenyl)-N-(5-cyano-1,2-dimethyl-1H-pyrrol-3-yl)-N-(4-hydroxyphenyl)-1,2-dimethyl-1H-pyrrole-3-carboxamide hydrochloride] | 50.6
11 | CN1CCN(C[C@@H]2Cc3ccccc3CN2C(=O)c2cc3c(cc2-c2cc(C(=O)N(c4ccc(O)cc4)c4ccc5[nH]ccc5c4)cn2C)OCO3)CC1 [Example 4, N-(4-Hydroxyphenyl)-N-(1H-indol-5-yl)-1-methyl-5-(6-{[(3S)-3-[(4-methylpiperazin-1-yl)methyl]-3,4-dihydroisoquinolin-2(1H)-yl]carbonyl}-1,3-benzodioxol-5-yl)-1H-pyrrole-3-carboxamide] | 231

same assay, conditions: Homo sapiens; RS4;11 cells, exposed for 48 hours, cell viability; read-out: IC50 (nM) MTT RS4;11

Row | Compound | IC50 [nM]
12 | Cl.[2H]C([2H])([2H])n1c(C#N)cc(N(C(=O)c2cc(-c3cc(Cl)ccc3C(=O)N3Cc4ccccc4C[C@H]3CN3CCOCC3)n(C)c2C)c2ccc(O)cc2)c1C [Example 449, 5-(5-Chloro-2-{[(3S)-3-(morpholin-4-ylmethyl)-3,4-dihydroisoquinolin-2(1H)-yl]carbonyl}phenyl)-N-[5-cyano-2-methyl-1-(trideuteriomethyl)-1H-pyrrol-3-yl]-N-(4-hydroxyphenyl)-1,2-dimethyl-1H-pyrrole-3-carboxamide hydrochloride] | 11.9
13 | Cc1c(N(C(=O)c2cc(-c3cc(Cl)ccc3C(=O)N3Cc4ccccc4C[C@H]3CN3CCOCC3)n(C)c2C)c2ccc(O)cc2)cc(C#N)n1C [Example 386, 5-(5-Chloro-2-{[(3S)-3-(morpholin-4-ylmethyl)-3,4-dihydroisoquinolin-2(1H)-yl]carbonyl}phenyl)-N-(5-cyano-1,2-dimethyl-1H-pyrrol-3-yl)-N-(4-hydroxyphenyl)-1,2-dimethyl-1H-pyrrole-3-carboxamide hydrochloride] | 9.23

same assay, conditions: RS4;11 cells, exposed for 48 hours, cell viability; read-out: IC50 (nM) MTT RS4;11

Row | Compound | IC50 [nM]
14 | CC(C)n1cc(C(=O)N(c2ccc(O)cc2)c2ccc3c(ccn3C)c2)cc1-c1cc(Cl)ccc1C(=O)N1Cc2ccccc2C[C@H]1CN1CCN(C)CC1 [Example 8] | 255
